# Assay results as given in patent US20080199449A1, “Methods and Compositions for Use in Treating Vascular Diseases and Conditions” (The General Hospital Corporation, priority 2005, published 2008).
# “Also recorded” adds a separate entry of the source.
# Key:
# [1] = system: gridlock phenotype (atresia of the proximal aorta in grl^m145 mutants); assay: Suppression of the gridlock phenotype (restoration of trunk and tail circulation) in grl^m145 mutant embryos; format: in vivo, zebrafish
# Experimental: Screening for suppressors of the gridlock phenotype. The screen was performed as previous described with modifications (Peterson et al., Nature Biotechnology 22:595-599, 2004). Briefly, pairs of homozygous grl^m145 zebrafish were mated, and fertilized eggs were arrayed in 96-well plates containing E3 embryo buffer. At the 6-somite stage, small molecules from the DiverSet E library (Chembridge) were added to each well, yielding a final concentration of 2.5 μM. Embryos were incubated at 28.5° C. for 48 hrs. Circulation to the tail was assessed visually using a dissecting microscope.
# Fluorescent microangiography. Fluorescence microangiography was performed as previously described (Weinstein et al., Nature Medicine 1:1143-1147, 1995).
# [2] = system: gridlock phenotype (atresia of the proximal aorta in grl^m145 mutants); conditions: whole zebrafish embryos; Peterson et al., Nature Biotechnology 22:595-599, 2004; cited from earlier work
# [3] = system: dorsal aorta and cardinal veins; assay: Artery-vein morphology in embryos expressing GFP in endothelial cells (fli-1 promoter); format: in vivo, zebrafish; conditions: for Vascular defects at higher doses: doses higher than the 1- to 5 μM suppressing range
# zebrafish embryos = assay: Gross embryonic morphology and lethality after compound exposure; format: in vivo
compound,measurement,setting,value
COc1ccc(SCCc2ccncc2)cc1.Cl [GS4012],"Suppression of the gridlock phenotype, single treatment at sub-effective dose","[1]; GS4898 0.75 μM, LY294002 3 μM, wortmannin 0.075 μM, GS4012 0.7 μg/mL (FIG. 1F)",does not suppress
same,Suppression of the gridlock phenotype (tail circulation),[1]; homozygous grl^m145 mutant zebrafish embryos,suppressed
same,Suppression of the vascular defect in gridlock mutant embryos (earlier screen),[2],suppresses the vascular defect in gridlock mutant embryos
O=c1cc(N2CCOCC2)oc2c(-c3ccccc3)cccc12 [LY294002],Vascular defects at higher doses,[3],severe vascular defects
N#C/C(=C(/N)Sc1ccc(N)cc1)c1ccccc1C(F)(F)F [SL327],"Gross embryonic morphology, treatment starting at 12-hpf","zebrafish embryos; 36-hpf embryos, GS4898 10 μM, SL327 60 μM (FIG. 5)","moderately deformed tail curvature, but otherwise grossly intact head organogenesis, somitogenesis, and yolk extension"
same,"Embryonic lethality and gross defects, treatment at stages earlier than 12-hpf",zebrafish embryos; treatment of embryos at earlier stages (FIG. 5),high degree of embryonic lethality and variable gross morphologic defects
N#CC(=C(/N)Sc1ccccc1N)/C(C#N)=C(\N)Sc1ccccc1N [U0126],Effect on aorta (artery formation),"[3]; 48-hpf fli-1 GFP embryos, GS4898 15 μM, U0126 100 μM, SL327 (FIG. 3E-G)",either loss or reduction of aorta; also recorded: the aorta is greatly reduced
same,"Effect on vein (posterior/common cardinal vein, vein formation)","[3]; 48-hpf fli-1 GFP embryos, GS4898 15 μM, U0126 100 μM, SL327 (FIG. 3F, G)",expansion of the common cardinal vein; also recorded: enlarged
COC[C@H]1OC(=O)c2coc3c2[C@@]1(C)C1=C(C3=O)[C@@H]2CCC(=O)[C@@]2(C)C[C@H]1OC(C)=O [wortmannin],Vascular defects at higher doses,[3],severe vascular defects
